Data from PubChem BioAssay (NCI).
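Briefly, cells in 96-well plates were exposed to five compound concentrations for 48 h, and endpoints were estimated by linear interpolation. GI50 marks 50% less growth. At the TGI there is no net growth.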

Tests used:
Assay in all cases: NCI anticancer screen, dose series, 48 h
EKVX NSCLC = test system: EKVX NSCLC
ACHN renal = test system: ACHN renal
PC-3 prostate = test system: PC-3 prostate
HOP-92 NSCLC = test system: HOP-92 NSCLC
HCC-2998 colon = test system: HCC-2998 colon
U251 CNS = test system: U251 CNS
UACC-62 melanoma = test system: UACC-62 melanoma
BT-549 breast = test system: BT-549 breast
MDA-MB-231 breast = test system: MDA-MB-231 breast
NCI-H460 lung = test system: NCI-H460 lung
RPMI-8226 leukemia = test system: RPMI-8226 leukemia
NCI-H226 lung = test system: NCI-H226 lung
NCI/ADR-RES ovarian = test system: NCI/ADR-RES ovarian
DU-145 prostate = test system: DU-145 prostate
HS 578T breast = test system: HS 578T breast
MOLT-4 leukemia = test system: MOLT-4 leukemia
LOX IMVI melanoma = test system: LOX IMVI melanoma
SF-295 CNS = test system: SF-295 CNS
SF-268 CNS = test system: SF-268 CNS
OVCAR-5 ovarian = test system: OVCAR-5 ovarian
SF-539 CNS = test system: SF-539 CNS
SNB-19 CNS = test system: SNB-19 CNS
SW-620 colon = test system: SW-620 colon
OVCAR-8 ovarian = test system: OVCAR-8 ovarian
UO-31 renal = test system: UO-31 renal
IGROV1 ovarian = test system: IGROV1 ovarian
HOP-62 NSCLC = test system: HOP-62 NSCLC
CAKI-1 renal = test system: CAKI-1 renal
SK-MEL-28 melanoma = test system: SK-MEL-28 melanoma
NCI-H522 lung = test system: NCI-H522 lung
MALME-3M melanoma = test system: MALME-3M melanoma
M14 melanoma = test system: M14 melanoma
UACC-257 melanoma = test system: UACC-257 melanoma
A549 NSCLC = test system: A549 NSCLC
KM12 colon = test system: KM12 colon
T-47D breast = test system: T-47D breast
OVCAR-3 ovarian = test system: OVCAR-3 ovarian
SK-OV-3 ovarian = test system: SK-OV-3 ovarian
A498 renal = test system: A498 renal
SR leukemia = test system: SR leukemia
SNB-75 CNS = test system: SNB-75 CNS
TK-10 renal = test system: TK-10 renal
HL-60(TB) leukemia = test system: HL-60(TB) leukemia
786-0 renal = test system: 786-0 renal
OVCAR-4 ovarian = test system: OVCAR-4 ovarian
HCT-116 colon = test system: HCT-116 colon
RXF 393 renal = test system: RXF 393 renal
COLO 205 colon = test system: COLO 205 colon
K-562 leukemia = test system: K-562 leukemia
HCT-15 colon = test system: HCT-15 colon
SK-MEL-5 melanoma = test system: SK-MEL-5 melanoma
MCF7 breast = test system: MCF7 breast
MDA-MB-435 = test system: MDA-MB-435
SK-MEL-2 melanoma = test system: SK-MEL-2 melanoma
SN12C renal = test system: SN12C renal
HT29 colon = test system: HT29 colon

SMILES: Cc1nc(-c2cc3ccccc3oc2=O)ccc1C(=O)/C=C/c1ccccn1
- GI50 (EKVX NSCLC): > 100 µM
- TGI (EKVX NSCLC): > 100 µM
- GI50 (ACHN renal): > 100 µM
- TGI (ACHN renal): > 100 µM
- GI50 (PC-3 prostate): > 100 µM
- TGI (PC-3 prostate): > 100 µM
- GI50 (HOP-92 NSCLC): 7.25 µM
- TGI (HOP-92 NSCLC): > 100 µM
- GI50 (HCC-2998 colon): > 100 µM
- TGI (HCC-2998 colon): > 100 µM
- GI50 (U251 CNS): 8.49 µM
- TGI (U251 CNS): > 100 µM
- GI50 (UACC-62 melanoma): > 100 µM
- TGI (UACC-62 melanoma): > 100 µM
- GI50 (BT-549 breast): > 100 µM
- TGI (BT-549 breast): > 100 µM
- GI50 (MDA-MB-231 breast): > 100 µM
- TGI (MDA-MB-231 breast): > 100 µM
- GI50 (NCI-H460 lung): > 100 µM
- TGI (NCI-H460 lung): > 100 µM
- GI50 (RPMI-8226 leukemia): 3.41 µM
- TGI (RPMI-8226 leukemia): > 100 µM
- GI50 (NCI-H226 lung): > 100 µM
- TGI (NCI-H226 lung): > 100 µM
- GI50 (NCI/ADR-RES ovarian): > 100 µM
- TGI (NCI/ADR-RES ovarian): > 100 µM
- GI50 (DU-145 prostate): > 100 µM
- TGI (DU-145 prostate): > 100 µM
- GI50 (HS 578T breast): > 100 µM
- TGI (HS 578T breast): > 100 µM
- GI50 (MOLT-4 leukemia): > 100 µM
- TGI (MOLT-4 leukemia): > 100 µM
- GI50 (LOX IMVI melanoma): 3.2 µM
- TGI (LOX IMVI melanoma): > 100 µM
- GI50 (SF-295 CNS): > 100 µM
- TGI (SF-295 CNS): > 100 µM
- GI50 (SF-268 CNS): > 100 µM
- TGI (SF-268 CNS): > 100 µM
- GI50 (OVCAR-5 ovarian): > 100 µM
- TGI (OVCAR-5 ovarian): > 100 µM
- GI50 (SF-539 CNS): > 100 µM
- TGI (SF-539 CNS): > 100 µM
- GI50 (SNB-19 CNS): > 100 µM
- TGI (SNB-19 CNS): > 100 µM
- GI50 (SW-620 colon): 6.77 µM
- TGI (SW-620 colon): > 100 µM
- GI50 (OVCAR-8 ovarian): > 100 µM
- TGI (OVCAR-8 ovarian): > 100 µM
- GI50 (UO-31 renal): > 100 µM
- TGI (UO-31 renal): > 100 µM
- GI50 (IGROV1 ovarian): > 100 µM
- TGI (IGROV1 ovarian): > 100 µM
- GI50 (HOP-62 NSCLC): > 100 µM
- TGI (HOP-62 NSCLC): > 100 µM
- GI50 (CAKI-1 renal): > 100 µM
- TGI (CAKI-1 renal): > 100 µM
- GI50 (SK-MEL-28 melanoma): > 100 µM
- TGI (SK-MEL-28 melanoma): > 100 µM
- GI50 (NCI-H522 lung): > 100 µM
- TGI (NCI-H522 lung): > 100 µM
- GI50 (MALME-3M melanoma): > 100 µM
- TGI (MALME-3M melanoma): > 100 µM
- GI50 (M14 melanoma): > 100 µM
- TGI (M14 melanoma): > 100 µM
- GI50 (UACC-257 melanoma): > 100 µM
- TGI (UACC-257 melanoma): > 100 µM
- GI50 (A549 NSCLC): > 100 µM
- TGI (A549 NSCLC): > 100 µM
- GI50 (KM12 colon): > 100 µM
- TGI (KM12 colon): > 100 µM
- GI50 (T-47D breast): > 100 µM
- TGI (T-47D breast): > 100 µM
- GI50 (OVCAR-3 ovarian): > 100 µM
- TGI (OVCAR-3 ovarian): > 100 µM
- GI50 (SK-OV-3 ovarian): > 100 µM
- TGI (SK-OV-3 ovarian): > 100 µM
- GI50 (A498 renal): > 100 µM
- TGI (A498 renal): > 100 µM
- GI50 (SR leukemia): 5.3 µM
- TGI (SR leukemia): > 100 µM
- GI50 (SNB-75 CNS): > 100 µM
- TGI (SNB-75 CNS): > 100 µM
- GI50 (TK-10 renal): > 100 µM
- TGI (TK-10 renal): > 100 µM
- GI50 (HL-60(TB) leukemia): > 100 µM
- TGI (HL-60(TB) leukemia): > 100 µM
- GI50 (786-0 renal): > 100 µM
- TGI (786-0 renal): > 100 µM
- GI50 (OVCAR-4 ovarian): > 100 µM
- TGI (OVCAR-4 ovarian): > 100 µM
- GI50 (HCT-116 colon): 6.34 µM
- TGI (HCT-116 colon): > 100 µM
- GI50 (RXF 393 renal): > 100 µM
- TGI (RXF 393 renal): > 100 µM
- GI50 (COLO 205 colon): > 100 µM
- TGI (COLO 205 colon): > 100 µM
- GI50 (K-562 leukemia): 6.47 µM
- TGI (K-562 leukemia): > 100 µM
- GI50 (HCT-15 colon): > 100 µM
- TGI (HCT-15 colon): > 100 µM
- GI50 (SK-MEL-5 melanoma): > 100 µM
- TGI (SK-MEL-5 melanoma): > 100 µM
- GI50 (MCF7 breast): 3.72 µM
- TGI (MCF7 breast): > 100 µM
- GI50 (MDA-MB-435): > 100 µM
- TGI (MDA-MB-435): > 100 µM
- GI50 (SK-MEL-2 melanoma): > 100 µM
- TGI (SK-MEL-2 melanoma): > 100 µM
- GI50 (SN12C renal): > 100 µM
- TGI (SN12C renal): > 100 µM
- GI50 (HT29 colon): > 100 µM
- TGI (HT29 colon): > 100 µM
